Values after ≈ are worked out from the molar mass of the structure shown.
How the values were obtained:
in vivo = settings: dog, po, 15 mg/kg
[1] = tested on: Staphylococcus aureus X1.1; experiment: MIC, standard agar-dilution assay, Staphylococcus aureus X1.1; type: cell-based; settings: Staphylococcus aureus X1.1; agar dilution
[2] = tested on: Staphylococcus aureus V41; experiment: MIC, standard agar-dilution assay, Staphylococcus aureus V41; type: cell-based; settings: Staphylococcus aureus V41; penicillin-resistant strain; agar dilution
[3] = tested on: Staphylococcus aureus X400; experiment: MIC, standard agar-dilution assay, Staphylococcus aureus X400; type: cell-based; settings: Staphylococcus aureus X400; methicillin-resistant strain; agar dilution
[4] = tested on: Staphylococcus aureus S13E; experiment: MIC, standard agar-dilution assay, Staphylococcus aureus S13E; type: cell-based; settings: Staphylococcus aureus S13E; agar dilution
[5] = tested on: Staphylococcus epidermidis EPI1; experiment: MIC, standard agar-dilution assay, Staphylococcus epidermidis EPI1; type: cell-based; settings: Staphylococcus epidermidis EPI1; agar dilution
[6] = tested on: Staphylococcus epidermidis EPI2; experiment: MIC, standard agar-dilution assay, Staphylococcus epidermidis EPI2; type: cell-based; settings: Staphylococcus epidermidis EPI2; agar dilution
[7] = tested on: Streptococcus pyogenes C203; experiment: MIC, standard agar-dilution assay, Streptococcus pyogenes C203; type: cell-based; settings: Streptococcus pyogenes C203; agar dilution
[8] = tested on: Streptococcus pneumoniae Park I; experiment: microbe, parasite or virus in culture; type: cell-based; settings: Streptococcus pneumoniae Park I; agar dilution
[9] = tested on: Streptococcus Group D X66; experiment: MIC, standard agar-dilution assay, Streptococcus Group D X66; type: cell-based; settings: Streptococcus Group D X66; agar dilution
Streptococcus Group 9960 = experiment: MIC, standard agar-dilution assay, Streptococcus Group 9960; type: cell-based; settings: Streptococcus Group 9960; agar dilution
[10] = tested on: Haemophilus influenzae Holt; experiment: MIC, standard agar-dilution assay, Haemophilus influenzae Holt; type: cell-based; settings: Haemophilus influenzae Holt; ampicillin-sensitive strain; agar dilution
[11] = tested on: Haemophilus influenzae R252; experiment: MIC, standard agar-dilution assay, Haemophilus influenzae R252; type: cell-based; settings: Haemophilus influenzae R252; ampicillin-resistant strain; agar dilution
Staphylococcus aureus = experiment: MIC, broth-dilution microtiter test, Staphylococcus aureus; type: cell-based; settings: broth-dilution microtiter
Excerpt: (§1) The MIC's in Table X were obtained using conventional broth-dilution microtiter tests.

Streptococcus bovis 80 = experiment: MIC, broth-dilution microtiter test, Streptococcus bovis 80; type: cell-based; settings: Streptococcus bovis 80; broth-dilution microtiter
Excerpt: as §1

[12] = tested on: Pasteurella multocida 17E; experiment: MIC, broth-dilution microtiter test, Pasteurella multocida 17E; type: cell-based; settings: Pasteurella multocida 17E; bovine isolate; broth-dilution microtiter
Excerpt: as §1

[13] = tested on: Pasteurella multocida 60A; experiment: MIC, broth-dilution microtiter test, Pasteurella multocida 60A; type: cell-based; settings: Pasteurella multocida 60A; avian isolate; broth-dilution microtiter
Excerpt: as §1

[14] = tested on: Pasteurella hemolytica 22C; experiment: MIC, broth-dilution microtiter test, Pasteurella hemolytica 22C; type: cell-based; settings: Pasteurella hemolytica 22C; broth-dilution microtiter
Excerpt: as §1

Mycoplasma gallisepticum [15] = experiment: MIC, broth-dilution microtiter test, Mycoplasma gallisepticum; type: cell-based; settings: Mycoplasma gallisepticum; broth-dilution microtiter
Excerpt: as §1

Mycoplasma synoviae = experiment: MIC, broth-dilution microtiter test, Mycoplasma synoviae; type: cell-based; settings: Mycoplasma synoviae; broth-dilution microtiter
Excerpt: as §1

Mycoplasma hyorhinis = experiment: MIC, broth-dilution microtiter test, Mycoplasma hyorhinis; type: cell-based; settings: Mycoplasma hyorhinis; broth-dilution microtiter
Excerpt: as §1

Mycoplasma hyopneumoniae = experiment: MIC, broth-dilution microtiter test, Mycoplasma hyopneumoniae; type: cell-based; settings: Mycoplasma hyopneumoniae; broth-dilution microtiter
Excerpt: as §1

[16] = tested on: Streptococcus pyogenes C203; experiment: In vivo protection of mice experimentally infected with S. pyogenes C203; settings: mice, doses given 1 and 4 hours post-infection
Method: The C-20 modified derivatives of this invention have shown in vivo antimicrobial activity against experimentally-induced infections in laboratory animals. When two doses of test compound were administered to mice experimentally infected with S. pyogenes C203, the activity observed was measured as an ED50 value [effective dose in mg/kg to protect 50% of the test animals: see Warren Wick, et al., J. Bacteriol. 81, 233-235 (1961)].

Pasteurella multocida [17] = experiment: Subcutaneous treatment of Pasteurella multocida-infected chicks; type: in vivo, one-day-old chicks; settings: 30 mg/kg × 2, 1 and 4 hours post-challenge
Procedure, shortened: (§2)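 One-day-old chicks challenged subcutaneously with 0.1 ml of a 10^-4 dilution of a 20-hour tryptose broth culture of avian P. multocida. Compounds given by subcutaneous injection at 30 mg/kg 1 and 4 hours post-challenge, or by oral gavage 1 and 5 hours post-challenge.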

Pasteurella multocida [18] = experiment: Oral (gavage) treatment of Pasteurella multocida-infected chicks; type: in vivo, one-day-old chicks
Procedure, shortened: as §2

Mycoplasma gallisepticum [19] = experiment: Antimycoplasmal activity in chicks infected with Mycoplasma gallisepticum; type: in vivo, two- to three-day-old chicks; settings: gavage five times, equivalent to 0.5 g/gal
Method: In these tests infections were induced in chicks by injecting 0.2 ml of a broth culture of M. gallisepticum into the abdominal air sac of two- to three-day-old chicks. The compounds were administered by gavage five times at a dose equivalent to 0.5 g/gal (on the day of challenge once prior to and once following the challenge, two times on the next day and once on the third day). Twenty-one days post-infection, the chicks were weighed, a blood sample was taken, and the chicks were sacrificed. The presence or absence of air-sac lesions was recorded.

[20] = Plasma level after oral administration to dogs; settings: female mongrel dogs; single 15 mg/kg oral dose

With `CC[C@H]1OC(=O)[C@H](C)[C@@H](O[C@H]2C[C@@](C)(OC)[C@@H](O)[C@H](C)O2)[C@H](C)[C@@H](O[C@@H]2O[C@H](C)C[C@H](N(C)C)[C@H]2O)[C@](C)(O)C[C@@H](C)C(=O)[C@H](C)[C@@H](O)[C@]1(C)O` [erythromycin] the Cmax (in vivo) was 1600 ng/mL.

Work on `CC[C@H]1OC(=O)C[C@@H](O)[C@H](C)[C@@H](O[C@@H]2O[C@H](C)[C@H](O)[C@H](N(C)C)[C@H]2O)[C@@H](CCOc2ccccc2)C[C@@H](C)C(=O)/C=C/C(C)=C/[C@@H]1COC1O[C@H](C)[C@@H](O)[C@@H](OC)[C@H]1OC` (stereo partly drawn) [Compound 33, 20-DH-20-O-Phenyldesmycosin] yielded an MIC [1] of 0.25 µg/mL (≈ 0.294 µM), an MIC [2] of 0.25 µg/mL (≈ 0.294 µM) and an MIC [3] of 0.25 µg/mL (≈ 0.294 µM). It also gave an MIC [4] of 0.25 µg/mL (≈ 0.294 µM), an MIC [5] of 0.25 µg/mL (≈ 0.294 µM) and an MIC [6] of 0.12 µg/mL (≈ 0.141 µM). It also gave an MIC [7] of 2 µg/mL (≈ 2.35 µM), an MIC [8] of 2 µg/mL (≈ 2.35 µM) and an MIC [9] of 8 µg/mL (≈ 9.41 µM). The MIC (Streptococcus Group 9960) was 16 µg/mL (≈ 18.8 µM), the MIC [10] was 32 µg/mL (≈ 37.6 µM) and the MIC [11] was 32 µg/mL (≈ 37.6 µM). For the same molecule, the MIC (Staphylococcus aureus) was 0.39 µg/mL (≈ 0.459 µM), the MIC (Streptococcus bovis 80) was 6.25 µg/mL (≈ 7.35 µM) and the MIC [12] was 12.5 µg/mL (≈ 14.7 µM). It also gave an MIC [13] of 12.5 µg/mL (≈ 14.7 µM), an MIC [14] of 25 µg/mL (≈ 29.4 µM) and an MIC (Mycoplasma gallisepticum [15]) of 0.39 µg/mL (≈ 0.459 µM). It also gave an MIC (Mycoplasma synoviae) of 1.56 µg/mL (≈ 1.84 µM), an MIC (Mycoplasma hyorhinis) of 25 µg/mL (≈ 29.4 µM) and an MIC (Mycoplasma hyopneumoniae) of 25 µg/mL (≈ 29.4 µM). For the same molecule, the “ED50, Oral” value ([16]; oral) was 9 mg/kg × 2, the “ED50, Subcutaneous” value ([16]; subcutaneous) was 1.5 mg/kg × 2 and the “Number of Deaths/Number Treated” value (Pasteurella multocida [17]) was 10/10. The “Number of Deaths/Number tested” value (Pasteurella multocida [18]; 1.0 g/gal equivalent) was 9/9, the “Number of Deaths/Number tested” value (Pasteurella multocida [18]; 2.0 g/gal equivalent) was 3/9 and the “Number of Deaths/Number tested” value (Pasteurella multocida [18]; 2.0 g/gal equivalent, 13/20 infected nonmedicated chicks died in this test) was 7/10. The “Number with Antibodies/Number Tested” value (Mycoplasma gallisepticum [19]; antibodies to M. gallisepticum, 21 days post-infection) was 10/10, the Mortality (Mycoplasma gallisepticum [19]) was 0/10 and the “Number with Air-Sac Lesions/Number Treated” value (Mycoplasma gallisepticum [19]; 21 days post-infection) was 2/10. The peak plasma level [20] was 2.1 µg/mL.

Work on `CCC1OC(=O)CC(O)C(C)C(OC2OC(C)C(O)C(N(C)C)C2O)C(CC=O)CC(C)C(=O)C=CC(C)=CC1COC1OC(C)C(O)C(OC)C1OC` (stereo not drawn) [desmycosin] yielded a Cmax (in vivo) of 500 ng/mL.
